Data published in ChEMBL document CHEMBL4052811, “Design, synthesis and antiproliferative activity of novel substituted 2-amino-7,8-dihydropteridin-6(5H)-one derivatives” (Bioorg Med Chem Lett, 2017).

Assays:
BT-549 [1] = assay: Cytotoxicity against human BT549 cells after 48 hrs by MTT assay; assay type: functional, cell-based; conditions: BT-549, 48 h
MDA-MB-231 = assay: Cytotoxicity against human MDA-MB-231 cells after 48 hrs by MTT assay; assay type: functional, cell-based; conditions: MDA-MB-231, 48 h
MDA-MB-468 [2] = assay: Cytotoxicity against human MDA-MB-468 cells after 48 hrs by MTT assay; assay type: functional, cell-based; conditions: MDA-MB-468, 48 h
T47D [3] = assay: Cytotoxicity against human T47D cells after 48 hrs by MTT assay; assay type: functional, cell-based
T47D [4] = assay: Cell cycle arrest in human T47D cells assessed as accumulation at G0/G1 phase at 6 uM after 12 to 48 hrs by FACS analysis (reference value: 59.67%); assay type: functional
T47D [5] = assay: Cell cycle arrest in human T47D cells assessed as accumulation at G2/M phase at 12 uM after 12 to 48 hrs by FACS analysis (reference value: 18.51%); assay type: functional
MDA-MB-468 [6] = assay: Potency index, ratio of fluorouracil IC50 to compound IC50 for human MDA-MB-468 cells; assay type: functional
T47D [7] = assay: Cell cycle arrest in human T47D cells assessed as accumulation at G0/G1 phase at 12 uM after 12 to 48 hrs by FACS analysis (reference value: 59.67%); assay type: functional
T47D [8] = assay: Cell cycle arrest in human T47D cells assessed as accumulation at S phase at 6 uM after 12 to 48 hrs by FACS analysis (reference value: 21.82%); assay type: functional
T47D [9] = assay: Cell cycle arrest in human T47D cells assessed as accumulation at S phase at 3 uM after 12 to 48 hrs by FACS analysis (reference value: 21.82%); assay type: functional
T47D [10] = assay: Cell cycle arrest in human T47D cells assessed as accumulation at G1 phase after 12 to 48 hrs by FACS analysis; assay type: functional, cell-based
BT-549 [11] = assay: Potency index, ratio of fluorouracil IC50 to compound IC50 for human BT549 cells; assay type: functional
T47D [12] = assay: Cell cycle arrest in human T47D cells assessed as accumulation at G2/M phase at 3 uM after 12 to 48 hrs by FACS analysis (reference value: 18.51%); assay type: functional
T47D [13] = assay: Potency index, ratio of fluorouracil IC50 to compound IC50 for human T47D cells; assay type: functional
T47D [14] = assay: Cell cycle arrest in human T47D cells assessed as accumulation at G0/G1 phase at 3 uM after 12 to 48 hrs by FACS analysis (reference value: 59.67%); assay type: functional
T47D [15] = assay: Cell cycle arrest in human T47D cells assessed as accumulation at S phase at 12 uM after 12 to 48 hrs by FACS analysis (reference value: 21.82%); assay type: functional
T47D [16] = assay: Cell cycle arrest in human T47D cells assessed as accumulation at G2/M phase at 6 uM after 12 to 48 hrs by FACS analysis (reference value: 18.51%); assay type: functional

| Structure (SMILES) | IC50 (BT-549 [1]) | IC50 (MDA-MB-231) | IC50 (MDA-MB-468 [2]) | IC50 (T47D [3]) | further results |
| --- | --- | --- | --- | --- | --- |
| CN1CC(=O)Nc2cnc(NCc3ccccc3)nc21 | 78.8 µM | 92 µM | 94.4 µM | 89.7 µM |  |
| CN1CC(=O)Nc2cnc(NCCc3ccccc3)nc21 | 41.2 µM | 34.2 µM | 56.2 µM | 23.2 µM |  |
| CCOC(=O)CNc1ncc2c(n1)N(Cc1ccccc1)CC(=O)N2 | > 100 µM | > 100 µM | > 100 µM | > 100 µM |  |
| O=C1CN(Cc2ccccc2)c2nc(NCCc3ccccc3)ncc2N1 | 10.7 µM | 22.4 µM | 7.75 µM | 6.37 µM | Activity (T47D [4]): 72.7%; Activity (T47D [5]): 20.98%; Ratio IC50 (MDA-MB-468 [6]): 49; Activity (T47D [7]): 74.68%; Activity (T47D [8]): 10.8%; Activity (T47D [9]): 18.98%; Activity (T47D [10]): Dose-dependent effect; Ratio IC50 (BT-549 [11]): 8; Activity (T47D [12]): 19.76%; Ratio IC50 (T47D [13]): 11; Activity (T47D [14]): 61.25%; Activity (T47D [15]): 4.34%; Activity (T47D [16]): 16.5% |
| COc1cccc(Nc2ncc3c(n2)N(Cc2ccccc2)CC(=O)N3)c1 | 81.1 µM | 99.9 µM | 40.4 µM | 78.7 µM |  |
| O=C1CN(Cc2ccccc2)c2nc(Nc3ccccc3)ncc2N1 | 11.9 µM | 37 µM | 20.6 µM | 15.2 µM |  |
| COc1cccc(CNc2ncc3c(n2)N(Cc2ccccc2)CC(=O)N3)c1 | 15.6 µM | 47 µM | 23.2 µM | 15.3 µM |  |
| O=c1[nH]cc(F)c(=O)[nH]1 [FLUOROURACIL] | 98.2 µM | 53.5 µM | 95.7 µM | 171 µM |  |
| O=C1CNc2nc(Nc3ccccc3)ncc2N1 | > 100 µM | > 100 µM | > 100 µM | 85.4 µM |  |
| O=C1CNc2nc(Nc3ccc(F)cc3)ncc2N1 | 92.4 µM | > 100 µM | > 100 µM | > 100 µM |  |
| CN1CC(=O)Nc2cnc(Nc3ccc(Cl)cc3)nc21 | 91 µM | > 100 µM | 31.3 µM | 36 µM |  |
| COc1cccc(Nc2ncc3c(n2)NCC(=O)N3)c1 | > 100 µM | 93.2 µM | > 100 µM | > 100 µM |  |
| CN1CC(=O)Nc2cnc(Nc3ccccc3)nc21 | > 100 µM | > 100 µM | > 100 µM | > 100 µM |  |
| COc1cc(Nc2ncc3c(n2)N(Cc2ccccc2)CC(=O)N3)cc(OC)c1OC | 12.8 µM | 10.6 µM | > 100 µM | 8.76 µM |  |
| COc1cc(Nc2ncc3c(n2)N(C)CC(=O)N3)cc(OC)c1OC | 45.2 µM | 46.2 µM | 66.1 µM | 56.2 µM |  |
| O=C1CNc2nc(Nc3ccc(Cl)cc3)ncc2N1 | 17.7 µM | 41.6 µM | 15 µM | 29.3 µM |  |
| CCOC(=O)CN(Cc1ccccc1)c1nc(NCCc2ccccc2)ncc1[N+](=O)[O-] | 13.7 µM | 24.2 µM | 6.26 µM | 6.59 µM |  |
| CN1CCN(Nc2ncc3c(n2)N(Cc2ccccc2)CC(=O)N3)CC1 | 98.3 µM | 98.3 µM | > 100 µM | 79 µM |  |
| CS(=O)(=O)N1CCC(Nc2ncc3c(n2)N(Cc2ccccc2)CC(=O)N3)CC1 | > 100 µM | > 100 µM | 97.4 µM | > 100 µM |  |
| COc1cccc(Nc2ncc3c(n2)N(C)CC(=O)N3)c1 | > 100 µM | > 100 µM | > 100 µM | > 100 µM |  |
| COc1ccc(Nc2ncc3c(n2)NCC(=O)N3)cc1 | 95 µM | > 100 µM | > 100 µM | 89.2 µM |  |
| O=C1CN(Cc2ccccc2)c2nc(Nc3ccc(Cl)cc3)ncc2N1 | > 100 µM | > 100 µM | > 100 µM | > 100 µM |  |
